Reference: patent publication US20240309007A1, “CRYSTALLINE FORMS OF 3-{4-[(2R)-2-AMINOPROPOXY]PHENYL}-N-[(1R)- 1-(3-FLUOROPHENYL) ETHYL]IMIDAZO[1,2-B]PYRIDAZIN-6-AMINE AND SALTS THEREOF” (ANHEART THERAPEUTICS (HANGZHOU) CO., LTD., priority 2021, published 2024)
In brackets after ≈: the same amount, converted by molar mass.

Tests used:
Type in all cases: physicochemical
[1] = Solubility of the crystalline form in buffers, SGF, FaSSIF, FeSSIF and water at 37° C. (HPLC; XRPD of undissolved solid); conditions: for solubility at 2 h / solubility at 24 h: 37 °C, thermodynamic from solid
Text: (1) a KCl/HCl buffer solution with a pH of 1.0, (2) a potassium hydrogen phthalate buffer solution with a pH of 3.0, (3) a sodium acetate trihydrate buffer solution with a pH of 4.5, (4) a potassium dihydrogen phosphate buffer solution with a pH of 6.0, (5) a potassium dihydrogen phosphate buffer solution with a pH of 7.5, (6) SGF (simulated gastric fluid), (7) FaSSIF (fasted state simulated intestinal fluids, pH=6.5), (8) FeSSIF (fed state simulated intestinal fluids, pH=5.0), and (9) water. Each mixture was then stirred in a water bath at 37° C. After equilibrated for 2 hours and 24 hours, concentrations (mg/mL) of the crystal in the mixture were measured by HPLC and the undissolved solid was evaluated by XRPD.

[2] = Stability under stress conditions (XRPD and HPLC purity)
Procedure: A predetermined amount of the crystalline form A of Compound 1 adipate was stored under the following conditions: (1) open to air under 25° C./60% RH for one or two weeks, (2) open to air under 40° C./75% RH for one or two weeks, (3) open to air under 80° C. for one day, and (4) exposed to light for 10 days. Crystalline form and chemical impurity were checked by XRPD and HPLC, respectively.
In Table 5, Sample No. 1 was a crystalline form A starting material before any test; Samples Nos. 2 and 3 were subject to condition (1) described above; Samples Nos. 4 and 5 were subject to condition (2) described above; Samples No. 6 was subject to condition (3) described above; and Samples Nos. 7 and 8 were subject to condition (4) described above where Sample No. 7 was not covered and Sample No. 8 was completely covered by a tin foil as a comparison.

[3] = Accelerated stability test, 40° C./75% RH, six months; conditions: for Appearance / Assay Adipic acid (potentiometric titration) / Assay DS-6051a (HPLC)/ (anhydrous and solvent free basis) / Related substances (UPLC) Total impurities / Water content (KF) / Related substances (UPLC) Unspecified individual impurity / Crystal form (XRPD): 40° C. ± 2° C./75 ± 5% RH; for Crystal form (XRPD): consistent with reference standard
Procedure: The accelerated stability test of the crystalline form A of Compound 1 adipate was performed by storing a sample at 40° C.±2° C./[…] for six months.

[4] = FaSSIF (fasted state simulated intestinal fluid), pH 6.5, fassif
[5] = FeSSIF (fed state simulated intestinal fluid), pH 5, fessif
[6] = KCl/HCl buffer, pH 1, simulated gastric fluid
[7] = SGF (simulated gastric fluid), 37° C.
[8] = SGF (simulated gastric fluid), simulated gastric fluid
[9] = potassium dihydrogen phosphate buffer pH 6.0, 37° C.
[10] = potassium dihydrogen phosphate buffer pH 7.5, 37° C.
[11] = potassium dihydrogen phosphate buffer, pH 6, aqueous buffer
[12] = potassium dihydrogen phosphate buffer, pH 7.5, aqueous buffer
[13] = potassium hydrogen phthalate buffer pH 3.0, 37° C.
[14] = potassium hydrogen phthalate buffer, pH 3, aqueous buffer
[15] = sodium acetate trihydrate buffer pH 4.5, 37° C.
[16] = sodium acetate trihydrate buffer, pH 4.5, aqueous buffer
[17] = Exposure to light (1.2 million lux h), 10 days, completely covered by a tin foil (comparison)
[18] = Exposure to light (1.2 million lux h), 10 days, not covered
[19] = open to air, 25° C./60% RH, 1 week
[20] = open to air, 25° C./60% RH, 2 weeks
[21] = open to air, 40° C./75% RH, 1 week
[22] = open to air, 40° C./75% RH, 2 weeks
[23] = starting material before any test

C[C@@H](N)COc1ccc(-c2cnc3ccc(N[C@H](C)c4cccc(F)c4)nn23)cc1 [crystalline form A of Compound 1 adipate, 3-{4-[(2R)-2-aminopropoxy]phenyl}-N-[(1R)-1-(3-fluorophenyl)ethyl]imidazo[1,2-b]pyridazin-6-amine]
solubility at 2 h [1, 4]: 331 µg/mL (≈ 0.816 mM)
solubility at 24 h [1, 4]: 225 µg/mL (≈ 0.555 mM)
XRPD of undissolved solid ([1]; FaSSIF (pH=6.5), 37° C.): changed
pH after 24 hours ([1]; FaSSIF (pH=6.5), 37° C.): 5.008
solubility at 2 h [1, 5]: 493 µg/mL (≈ 1.22 mM)
solubility at 24 h [1, 5]: 143 µg/mL (≈ 0.353 mM)
XRPD of undissolved solid ([1]; FeSSIF (pH=5.0), 37° C.): Form A
pH after 24 hours ([1]; FeSSIF (pH=5.0), 37° C.): 4.205
XRPD of undissolved solid ([1]; KCl/HCl buffer pH 1.0, 37° C.): changed
pH after 24 hours ([1]; KCl/HCl buffer pH 1.0, 37° C.): 3.746
solubility at 2 h [1, 6]: 20400 µg/mL (≈ 50.4 mM)
solubility at 24 h [1, 6]: 17800 µg/mL (≈ 43.9 mM)
XRPD of undissolved solid [1, 7]: changed
pH after 24 hours [1, 7]: 5.281
solubility at 2 h [1, 8]: 15600 µg/mL (≈ 38.5 mM)
solubility at 24 h [1, 8]: 16000 µg/mL (≈ 39.4 mM)
solubility (in words) ([1]; pH 1): superior solubility
XRPD of undissolved solid [1, 9]: Form A
pH after 24 hours [1, 9]: 5.055
XRPD of undissolved solid [1, 10]: changed
pH after 24 hours [1, 10]: 5.570
solubility at 2 h [1, 11]: 2340 µg/mL (≈ 5.76 mM)
solubility at 24 h [1, 11]: 1700 µg/mL (≈ 4.2 mM)
solubility at 2 h [1, 12]: 597 µg/mL (≈ 1.47 mM)
solubility at 24 h [1, 12]: 419 µg/mL (≈ 1.03 mM)
XRPD of undissolved solid [1, 13]: changed
pH after 24 hours [1, 13]: 4.418
solubility at 2 h [1, 14]: 1350 µg/mL (≈ 3.32 mM)
solubility at 24 h [1, 14]: 852 µg/mL (≈ 2.1 mM)
XRPD of undissolved solid [1, 15]: Form A
pH after 24 hours [1, 15]: 4.541
solubility at 2 h [1, 16]: 2840 µg/mL (≈ 7 mM)
solubility at 24 h [1, 16]: 2880 µg/mL (≈ 7.12 mM)
XRPD of undissolved solid ([1]; water, 37° C.): Form A
pH after 24 hours ([1]; water, 37° C.): 5.115
solubility at 2 h ([1]; water): 1610 µg/mL (≈ 3.96 mM)
solubility at 24 h ([1]; water): 1410 µg/mL (≈ 3.48 mM)
crystalline form on storage (physical stability) [2]: remains unchanged
physical and chemical stability (in words) [2]: superior physical and chemical stability
purity on storage (chemical stability) [2]: essentially unchanged
Purity (%) [2, 17]: 99.81%
XRPD [2, 17]: Form A
Purity (%) [2, 18]: 99.79%
XRPD [2, 18]: Form A
Purity (%) [2, 19]: 99.81%
XRPD [2, 19]: Form A
Purity (%) [2, 20]: 99.79%
XRPD [2, 20]: Form A
Purity (%) [2, 21]: 99.84%
XRPD [2, 21]: Form A
Purity (%) [2, 22]: 99.81%
XRPD [2, 22]: Form A
Purity (%) ([2]; open to air, 80° C., 1 day): 99.68%
XRPD ([2]; open to air, 80° C., 1 day): Form A
Purity (%) [2, 23]: 99.86%
XRPD [2, 23]: Form A
stability (in words) [3]: superior stability
Appearance ([3]; 0 M): White
Assay Adipic acid (potentiometric titration) ([3]; 0 M): 26.2%
Assay DS-6051a (HPLC)/ (anhydrous and solvent free basis) ([3]; 0 M): 99.5%
Related substances (UPLC) Total impurities ([3]; 0 M): 0.05%
Water content (KF) ([3]; 0 M): 0.2%
Related substances (UPLC) Unspecified individual impurity ([3]; 0 M, RRT1.48): 0.05%
Crystal form (XRPD) ([3]; 0 M): conform
Appearance ([3]; 1 M): White
Assay Adipic acid (potentiometric titration) ([3]; 1 M): 26.5%
Assay DS-6051a (HPLC)/ (anhydrous and solvent free basis) ([3]; 1 M): 100.1%
Related substances (UPLC) Total impurities ([3]; 1 M): <0.05%
Related substances (UPLC) Unspecified individual impurity ([3]; 1 M): <0.05%
Water content (KF) ([3]; 1 M): 0.1%
Crystal form (XRPD) ([3]; 1 M): conform
Appearance ([3]; 2 M): White
Assay Adipic acid (potentiometric titration) ([3]; 2 M): 26.4%
Assay DS-6051a (HPLC)/ (anhydrous and solvent free basis) ([3]; 2 M): 99.6%
Related substances (UPLC) Total impurities ([3]; 2 M): <0.05%
Related substances (UPLC) Unspecified individual impurity ([3]; 2 M): <0.05%
Water content (KF) ([3]; 2 M): 0.1%
Crystal form (XRPD) ([3]; 2 M): conform
Appearance ([3]; 3 M): White
Assay Adipic acid (potentiometric titration) ([3]; 3 M): 26.2%
Assay DS-6051a (HPLC)/ (anhydrous and solvent free basis) ([3]; 3 M): 99.5%
Related substances (UPLC) Total impurities ([3]; 3 M): <0.05%
Related substances (UPLC) Unspecified individual impurity ([3]; 3 M): <0.05%
Water content (KF) ([3]; 3 M): 0.1%
Crystal form (XRPD) ([3]; 3 M): conform
Appearance ([3]; 6 M): White
Assay Adipic acid (potentiometric titration) ([3]; 6 M): 26.2%
Assay DS-6051a (HPLC)/ (anhydrous and solvent free basis) ([3]; 6 M): 99.0%
Related substances (UPLC) Total impurities ([3]; 6 M): <0.05%
Related substances (UPLC) Unspecified individual impurity ([3]; 6 M): <0.05%
Water content (KF) ([3]; 6 M): 0.1%
Crystal form (XRPD) ([3]; 6 M): conform
